Measurements as given in patent US8389544B2, “Isoquinolone compounds as subtype-selective agonists for melatonin receptors MT1 and MT2” (The Hong Kong University of Science and Technology, priority 2007, dated 2013).
Read-outs that look alike come from different tables or passages of the source.

Legend:
[1] = target: T1, MT2 receptor (Homo sapiens, UniProt P49286); experiment: Competitive [3H]melatonin binding assay, MT2; set-up: expressed in transfected cells; conditions: displacement of 1 nM [3H]melatonin
T1 sequence (P49286 1-362): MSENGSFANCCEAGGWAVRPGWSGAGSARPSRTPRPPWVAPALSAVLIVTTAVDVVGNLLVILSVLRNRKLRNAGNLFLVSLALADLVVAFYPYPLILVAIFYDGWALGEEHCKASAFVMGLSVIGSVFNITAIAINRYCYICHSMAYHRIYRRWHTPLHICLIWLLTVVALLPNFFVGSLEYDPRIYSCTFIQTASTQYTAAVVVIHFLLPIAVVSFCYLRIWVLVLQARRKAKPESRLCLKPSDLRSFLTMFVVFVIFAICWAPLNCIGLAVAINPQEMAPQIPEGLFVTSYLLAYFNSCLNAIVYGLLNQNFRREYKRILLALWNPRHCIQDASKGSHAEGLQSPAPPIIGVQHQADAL
Protocol: Competitive ligand binding assays were performed to examine the receptor binding characteristics of the novel isoquinolone compounds. The assay measures the ability of the novel isoquinolone compounds to bind and displace the radiolabelled endogenous ligand, [^3H]melatonin. Increasing concentrations of the novel compounds are added to displace the [^3H]melatonin-bound to MT1 or MT2 receptor-expressing cells.
4. Competitive Binding Assay
The ability of compounds to bind to MT1 and/or MT2 receptors is determined using radioligand binding assays. […] 48 hours following transfection, cells are harvested in binding buffer (50 mM Tris-HCl, 2 mM MgCl2, 1 mM EDTA, pH 7.4). 100,000 cells are incubated with 1 nM [^3H] melatonin (specific activity: 83 Ci/mmol; GE Healthcare) and appropriate concentrations (0.1 nM to 1 μM) of unlabelled ligands in a total volume of 100 μl in 96-well plates (PerkinElmer Life And Analytical Sciences, Inc., Boston, Mass.) for 2 hours at room temperature. Reactions are terminated by rapid filtration through a 96-well cell harvester onto 96-well GF/C filter mats. Filters are washed with 500 μl of ice-cold binding buffer, dried and sealed in a polyethylene bag with 3.5 ml of scintillation fluid and counted for tritium in a Microbeta Jet scintillation counter. […] Data are analyzed by nonlinear least-squares regression using GraphPad Prism 3.02.

[2] = target: MT1 receptor (Homo sapiens, UniProt P48039); experiment: FLIPR Ca2+ mobilization assay, MT1; assay type: cell-based; set-up: expressed in transfected cells; host or cells: COS-7 (monkey kidney fibroblast); conditions: for logEC50 ± SEM: NSR = No significant response; for % Response of 2-IMT: relative to 2-IMT response
MT1 receptor, sequence (P48039 whole entry): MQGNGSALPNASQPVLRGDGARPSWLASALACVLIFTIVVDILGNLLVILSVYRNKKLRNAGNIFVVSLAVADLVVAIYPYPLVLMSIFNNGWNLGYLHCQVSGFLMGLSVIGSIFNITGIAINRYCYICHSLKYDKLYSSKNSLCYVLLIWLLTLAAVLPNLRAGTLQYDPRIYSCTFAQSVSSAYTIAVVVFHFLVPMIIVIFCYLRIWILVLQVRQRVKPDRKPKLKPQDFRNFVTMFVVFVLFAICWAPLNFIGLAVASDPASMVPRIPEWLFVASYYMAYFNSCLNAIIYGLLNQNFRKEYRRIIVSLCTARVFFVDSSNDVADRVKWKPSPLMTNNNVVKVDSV
Protocol: (§1) 1. FLIPR Ca^2+ Mobilization Assay
(§2) This assay indicates the ability of the novel compounds to activate MT1 and MT2 receptors by measuring downstream events of the activated receptor, in this case intracellular calcium mobilization.
(§3) 1. Intracellular Ca^2+ Mobilization Assay Using Fluorometric Imaging Plate Reader (FLIPR®)
(§4) An intracellular calcium mobilization assay was performed to screen the isoquinolone compounds against the two melatonin receptor subtypes, MT1 and MT2 on the fluorometric imaging plate reader (FLIPR®). In order to facilitate the screening process in a high-throughput manner, chimeric G proteins with the ability to couple to a range of GPCR as well as activate intracellular Ca^2+ were employed. The melatonin receptor subtype (either MT1 or MT2) was co-expressed with the G-protein chimeras in COS-7 (monkey kidney fibroblast) cells. During the assay, cells were exposed to the novel isoquinolone compounds and the corresponding change in fluorescence was measured. Both single point and dose-dependant assays were performed for each isoquinolone compound and based on the latter a dose response curve was generated and the corresponding EC50 for each receptor subtype determined.
(§5) Specifically, COS-7 cells were seeded at a density of 20,000 cells/well into 96-well plates designed for FLIPR assays, using Opti-MEM with 10% FCS at a volume of 100 μl/well. Transfection was carried out using Lipofectamine 2000® reagent. In each well, 0.2 μg of the GPCR and G protein cDNA were diluted with 25 μl of Opti-MEM and 0.2 μl of Lipofectamine 2000® was diluted with another 25 μl of Opti-MEM. They were added to appropriate wells after the two components were mixed for 20 min.
(§6) After 48 hours of incubation post-transfection, 50 μl of the transfection medium was removed from each well followed by the labelling of transfected cells with 100 μl of 2 μM Fluo-4 in calcium containing HBSS (Hank's balanced salt solution) with 20 mM HEPES (N-[2-hydroxyethyl]piperazine—N′-[2-ethanesulfonic acid]; pH 7.5) and 2.5 mM probenecid (anion exchanger inhibitor, freshly prepared) for 1 hour at 37° C. 70 μl of 3× drugs (isoquinolinone compounds encompassing the invention) were prepared and aliquoted into the corresponding wells in the V-well drug plate. Changes in fluorescence were detected in the FLIPR 96 with an excitation wavelength of 488 nm. The background fluorescence was adjusted to the range of 8,000 to 12,000 units by altering the laser power and exposure time (typically 0.4 W and 0.4 sec, respectively) for the FLIPR setup. 50 μl of each agonist solution was added to the corresponding wells and the fluorescent emission (between 510 and 560 nm) was monitored for 3 min. Results were expressed as change in fluorescent intensity units (FIU). Concentration-response curves were generated by determining the maximal change in FIU of each data set. Numerical analysis of the statistics and EC50 (median effective concentration) values were performed on GraphPad Prism version 3.03.
(§7) Then the intracellular Ca^2+ mobilization assays using the Fluorometric Imaging Plate Reader (FLIPR®) were performed as described above.

[3] = target: T1, MT2 receptor; experiment: FLIPR Ca2+ mobilization assay, MT2; assay type: cell-based; set-up: expressed in transfected cells; host or cells: COS-7 (monkey kidney fibroblast); conditions: for agonist character / receptor subtype selectivity in words: FLIPR results, MT1 versus MT2; for Emax: read-out: % Response of 2-IMT; for % Response of 2-IMT: relative to 2-IMT response
Protocol: as §1, §2, §3, §4, §5, §6, §7

[4] = target: T1, MT2 receptor; experiment: cAMP assay, MT2; assay type: cell-based; set-up: expressed in transfected cells; host or cells: COS-7 (monkey kidney fibroblast); conditions: inhibition of forskolin-stimulated cAMP production; MT2-expressing cells
[5] = HEK-293 cells, log value, negative, NSB = No significant binding
[6] = Table 1, MT1 in COS-7 cells with chimeric G protein, log value, negative, NSR = no significant response
[7] = Table 2, MT1, log value, negative
[8] = Table 1, MT2 in COS-7 cells with chimeric G protein, log value, negative, NSR = no significant response, read-out: Log(EC50) ± SEM (converted)
[9] = Table 1, MT2 in COS-7 cells with chimeric G protein, log value, negative, NSR = no significant response
[10] = Table 2, MT2, log value, negative
[11] = Table 1, MT1 in COS-7 cells with chimeric G protein, log value, negative, NSR = no significant response, read-out: Log(EC50) ± SEM (converted)
[12] = unit inferred, read-out: Binding Assay MT2 IC50

Compound	Binding Assay MT2 logIC50 ± SEM [1, 5]	Log(EC50) ± SEM [2, 6]	logEC50 ± SEM [2, 7]	agonist character / receptor subtype selectivity in words [3]	EC50 [3, 8] [µM]	% Resp of 2-IMT ([3]; Table 2, MT2) [%]	EC50 ([3]; Table 2, MT2, read-out: EC50) [µM]	Emax [3] [%]	cAMP Assay MT2 % Inh [4] [%]	% Response of 2-IMT ([3]; Table 1, MT2) [%]	Log(EC50) ± SEM [3, 9]	logEC50 ± SEM [3, 10]	% Response of 2-IMT ([2]; Table 1, MT1) [%]	EC50 [2, 11] [µM]	EC50 ([2]; Table 2, MT1, read-out: EC50) [µM]	IC50 [1, 12] [µM]	IC50 ([1]; HEK-293 cells, log value, negative, NSB = No significant binding, read-out: Binding Assay MT2 logIC50 ± SEM (converted)) [µM]	activity / efficacy at MT2 compared to 2-IMT [3] [%]	EC50 ([3]; read-out: EC50 MT2) [µM]
COc1cc(COc2cc3c(=O)n(C)ccc3cc2OC)cc(OC)c1 [IS523]	NSB	NSR	NSR	very potent full agonists with high MT2 selectivity	0.0457	61.0	0.0454	61	50.8 ± 9.1										
Cn1ccc2cc(OC(=O)c3ccccc3)c(OC(=O)c3ccccc3)cc2c1=O [IS039]	NSB	NSR	NSR			61.0	0.00231		4.2 ± 6.8	61.0	−8.64 ± 0.20	−8.64 ± 0.20							
COc1ccc2c(=O)n(C)ccc2c1OCc1ccc(C)cc1 [IS529]	NSB	NSR	NSR	activated MT2 only	0.0646	53.6	0.0652	53.6	37.7 ± 11.9										
COc1cc(COc2cc3ccn(C)c(=O)c3cc2OC)cc(OC)c1 [IS042]	NSB			very potent full agonists with high MT2 selectivity	0.00038	84.5	0.000379	84.5	58.7 ± 5.8				49.4	0.012	0.012				
COc1cccc(COc2cc3ccn(C)c(=O)c3cc2OC)c1 [IS044]		−6.79 ± 0.17	−6.79 ± 0.17	very potent full agonists with high MT2 selectivity		94.9	0.0038		62.5 ± 4.0	94.9	−8.42 ± 0.25	−8.42 ± 0.25	54.5		0.161				
COc1cc2ccn(C)c(=O)c2cc1OCc1ccc(C(C)(C)C)cc1 [IS526]	NSB	−5.35 ± 1.32	−5.35 ± 1.32			88.6	3.77		−63.9 ± 59.2	88.6	−5.42 ± 0.76	−5.42 ± 0.76	46.2		4.49				
COc1cccc(COc2cc3c(=O)n(C)ccc3cc2OC)c1 [IS521]				very potent full agonists with high MT2 selectivity	0.0115	98.9	0.0114	98.9	63.2 ± 4.9				31.8	1.86	1.86	0.145			
COc1cccc(COc2c(OC)ccc3c(=O)n(C)ccc23)c1 [IS527]		NSR	NSR			65.9	0.00578	65.9	51.4 ± 12.1							0.108	0.117	~65	0.00578
COc1cc(COc2c(OC)ccc3c(=O)n(C)ccc23)cc(OC)c1 [IS528]	NSB	−5.15 ± 0.51	−5.15 ± 0.51			64.8	0.000369		49.4 ± 13.2	64.8	−9.43 ± 0.75	−9.43 ± 0.75	42.1		7.14			~65	0.00037
